# Measured values taken from patent publication US20060069132A1, “Azolecarboxamide herbicides” (priority 2004, published 2006).
# Read-outs that look alike come from different tables or passages of the source.
# Assays:
# [1] = test system: corn; assay: Test C pre-/postemergence herbicide test; assay type: in vivo, Zea mays; conditions: for Plant response rating, Corn: preemergence
# How it was run: (§1)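 Seeds were planted and sprayed preemergence with test chemicals in a non-phytotoxic solvent mixture containing surfactant; postemergence treatments went onto plants 2 to 18 cm tall (1- to 4-leaf stage). After 12 to 14 days in a greenhouse, injury was rated visually against untreated controls on a 0–100 scale.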
# [2] = test system: kochia; assay: Test C pre-/postemergence herbicide test; assay type: in vivo, Kochia scoparia; conditions: for Plant response rating, Kochia: preemergence
# How it was run: as §1
# [3] = test system: Surinam grass; assay: Test C pre-/postemergence herbicide test; assay type: in vivo, Urochloa decumbens; conditions: for Plant response rating, Surinam Grass: preemergence
# How it was run: as §1
# [4] = test system: morningglory; assay: Test C pre-/postemergence herbicide test; assay type: in vivo, Ipomoea coccinea; design: key to Plant response rating, Morningglory: 0 = no effect, 100 = complete control; conditions: for Plant response rating, Morningglory: preemergence
# How it was run: as §1
# [5] = test system: velvetleaf; assay: Test A pre-/postemergence herbicide test; assay type: in vivo, Abutilon theophrasti
# How it was run: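 Seeds sown in sandy loam received a preemergence directed soil spray of compound in non-phytotoxic solvent with surfactant; postemergence plants (2–10 cm, one- to two-leaf stage) were sprayed to runoff at the same time. After ~10 days in greenhouse, injury was rated visually versus untreated controls (0 = no effect, 100 = complete control).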
# [6] = test system: giant foxtail; assay: Test C pre-/postemergence herbicide test; assay type: in vivo, Setaria faberi; conditions: for Plant response rating, Foxtail, Giant: preemergence
# How it was run: as §1
# [7] = test system: soybean; assay: Test C pre-/postemergence herbicide test; assay type: in vivo, Glycine max; conditions: for Plant response rating, Soybean: preemergence
# How it was run: as §1
# [8] = test system: common ragweed; assay: Test C pre-/postemergence herbicide test; assay type: in vivo, Ambrosia elatior; design: key to Plant response rating, Ragweed: 0 = no effect, 100 = complete control; conditions: for Plant response rating, Ragweed: preemergence
# How it was run: as §1
# [9] = Postemergence, 500 g ai/ha, scale 0 to 100
# [10] = 125 g ai/ha, scale 0 (no effect) to 100 (complete control), visual, 12 to 14 days
# [11] = Preemergence, 500 g ai/ha, scale 0 to 100, 0 no effect, 100 complete control
# [12] = Postemergence, 500 g ai/ha, 0 to 100 scale, 0 no effect, 100 complete control
# [13] = Postemergence, 2000 g ai/ha, 0 to 100 scale, 0 no effect, 100 complete control
# [14] = Preemergence, 2000 g ai/ha, visual rating, 0 to 100 scale (0 no effect, 100 complete control)
# [15] = preemergence, 500 g ai/ha, visual injury, 0 to 100 scale (0 no effect, 100 complete control)
# [16] = 500 g ai/ha, scale 0 to 100 (0 no effect, 100 complete control), visual, 12 to 14 days
structure (smiles),measurement,setting,value
"CCn1nc(C(C)(C)C)cc1C(=O)Nc1cccc(C(=O)OCCF)c1 [Compound 82, 2-fluoroethyl 3-[[[3-(1,1-dimethylethyl)-1-ethyl-1H-pyrazol-5-yl]-carbonyl]amino]benzoate]",Corn plant response rating,[1]; [9],45
same,"Corn plant response rating (crop injury, 0 = no effect, 100 = complete kill) at 250 g/ha","[1]; Zea mays, post-emergence, 312 h, Postemergence, 250 g ai/ha, scale 0 to 100, 0 no effect, 100 complete control",10%
same,"Corn plant response rating (crop injury, 0 = no effect, 100 = complete kill) at 125 g/ha","[1]; Zea mays, post-emergence, 312 h, postemergence, 125 g ai/ha, scale 0 to 100",10%
same,"Corn plant response rating (crop injury, 0 = no effect, 100 = complete kill) at 62 g/ha","[1]; Zea mays, post-emergence, 312 h, postemergence, 62 g ai/ha, scale 0 to 100",10%
same,pest or weed control at 250 g/ha,"[2]; Bassia scoparia, post-emergence, Postemergence, 250 g ai/ha, scale 0 to 100, 0 no effect, 100 complete control, read-out: Plant response rating, Kochia",50%
same,pest or weed control at 125 g/ha,"[2]; Bassia scoparia, post-emergence, postemergence, 125 g ai/ha, scale 0 to 100, read-out: Plant response rating, Kochia",40%
same,pest or weed control at 62 g/ha,"[2]; Bassia scoparia, post-emergence, postemergence, 62 g ai/ha, scale 0 to 100, read-out: Plant response rating, Kochia",10%
same,Kochia plant response rating,[2]; [9],70
same,Surinam Grass plant response rating,[3]; [9],40
same,pest or weed control at 250 g/ha,"[3]; Urochloa decumbens, post-emergence, 312 h, Postemergence, 250 g ai/ha, scale 0 to 100, 0 no effect, 100 complete control, read-out: Plant response rating, Surinam Grass",20%
same,pest or weed control at 125 g/ha,"[3]; Urochloa decumbens, post-emergence, 312 h, postemergence, 125 g ai/ha, scale 0 to 100, read-out: Plant response rating, Surinam Grass",10%
same,pest or weed control at 62 g/ha,"[3]; Urochloa decumbens, post-emergence, 312 h, postemergence, 62 g ai/ha, scale 0 to 100, read-out: Plant response rating, Surinam Grass",10%
same,pest or weed control at 250 g/ha,"[4]; Ipomoea, post-emergence, Postemergence, 250 g ai/ha, scale 0 to 100, 0 no effect, 100 complete control, read-out: Plant response rating, Morningglory",50%
same,pest or weed control at 125 g/ha,"[4]; Ipomoea, post-emergence, postemergence, 125 g ai/ha, scale 0 to 100, read-out: Plant response rating, Morningglory",10%
same,pest or weed control at 62 g/ha,"[4]; Ipomoea, post-emergence, postemergence, 62 g ai/ha, scale 0 to 100, read-out: Plant response rating, Morningglory",10%
same,Morningglory plant response rating,[4]; [9],50
same,pest or weed control at 2000 g/ha,"[5]; Abutilon theophrasti, post-emergence, 240 h, Postemergence, 2000 g ai/ha, 0 to 100 scale, 0 no effect, 100 complete control, read-out: Plant response rating, Velvetleaf",30%
same,pest or weed control at 500 g/ha,"[5]; Abutilon theophrasti, pre-emergence, 240 h, Preemergence, 500 g ai/ha, visual rating, 0 to 100 scale (0 no effect, 100 complete control), read-out: Velvetleaf plant response rating",0%
same,pest or weed control at 2000 g/ha,"[5]; Abutilon theophrasti, pre-emergence, 240 h, Preemergence, 2000 g ai/ha, visual rating, 0 to 100 scale (0 no effect, 100 complete control), read-out: Velvetleaf plant response rating",0%
same,"Foxtail, Giant plant response rating",[6]; [9],30
same,pest or weed control at 250 g/ha,"[6]; Setaria faberi, post-emergence, 312 h, Postemergence, 250 g ai/ha, scale 0 to 100, 0 no effect, 100 complete control, read-out: Plant response rating, Foxtail, Giant",10%
same,pest or weed control at 125 g/ha,"[6]; Setaria faberi, post-emergence, 312 h, postemergence, 125 g ai/ha, scale 0 to 100, read-out: Plant response rating, Foxtail, Giant",0%
same,pest or weed control at 62 g/ha,"[6]; Setaria faberi, post-emergence, 312 h, postemergence, 62 g ai/ha, scale 0 to 100, read-out: Plant response rating, Foxtail, Giant",0%
same,plant injury at 250 g/ha,"[7]; Glycine max, post-emergence, Postemergence, 250 g ai/ha, scale 0 to 100, 0 no effect, 100 complete control, read-out: Plant response rating, Soybean",40%
same,plant injury at 125 g/ha,"[7]; Glycine max, post-emergence, postemergence, 125 g ai/ha, scale 0 to 100, read-out: Plant response rating, Soybean",30%
same,plant injury at 62 g/ha,"[7]; Glycine max, post-emergence, postemergence, 62 g ai/ha, scale 0 to 100, read-out: Plant response rating, Soybean",20%
same,Soybean plant response rating,[7]; [9],40
same,pest or weed control at 250 g/ha,"[8]; Ambrosia artemisiifolia, post-emergence, Postemergence, 250 g ai/ha, scale 0 to 100, 0 no effect, 100 complete control, read-out: Plant response rating, Ragweed",10%
same,pest or weed control at 125 g/ha,"[8]; Ambrosia artemisiifolia, post-emergence, postemergence, 125 g ai/ha, scale 0 to 100, read-out: Plant response rating, Ragweed",0%
same,pest or weed control at 62 g/ha,"[8]; Ambrosia artemisiifolia, post-emergence, postemergence, 62 g ai/ha, scale 0 to 100, read-out: Plant response rating, Ragweed",0%
same,Ragweed plant response rating,[8]; [9],30
CCN(CC)C(=O)c1cccc(NC(=O)c2sc(C(C)(C)C)nc2C)c1 [Compound 199],"Plant response rating, Corn","[1]; 62 g ai/ha, scale 0 to 100",0
same,"Plant response rating, Corn",[1]; [10],0
same,"Plant response rating, Corn","[1]; 250 g ai/ha, scale 0-100",0
same,Corn plant response rating,[1]; [11],0
same,"Plant response rating, Kochia","[2]; 62 g ai/ha, scale 0 to 100",80
same,"Plant response rating, Kochia",[2]; [10],85
same,"Plant response rating, Kochia","[2]; 250 g ai/ha, scale 0-100",90
same,Kochia plant response rating,[2]; [11],90
same,"Plant response rating, Surinam Grass","[3]; 62 g ai/ha, scale 0 to 100",0
same,"Plant response rating, Surinam Grass",[3]; [10],0
same,"Plant response rating, Surinam Grass","[3]; 250 g ai/ha, scale 0-100",30
same,Surinam Grass plant response rating,[3]; [11],75
same,"Plant response rating, Morningglory",[4]; [10],50
same,"Plant response rating, Morningglory","[4]; 250 g ai/ha, scale 0-100",70
same,Morningglory plant response rating,[4]; [11],70
same,Velvetleaf plant response rating,[5]; [12],30
same,"Plant response rating, Velvetleaf",[5]; [13],35
same,Velvetleaf plant response rating,[5]; [14],90
same,Velvetleaf plant response rating,[5]; [15],35
same,"Plant response rating, Foxtail, Giant","[6]; 62 g ai/ha, scale 0 to 100",0
same,"Plant response rating, Foxtail, Giant",[6]; [10],10
same,"Plant response rating, Foxtail, Giant","[6]; 250 g ai/ha, scale 0-100",80
same,"Foxtail, Giant plant response rating",[6]; [11],100
same,"Plant response rating, Soybean","[7]; 62 g ai/ha, scale 0 to 100",0
same,"Plant response rating, Soybean",[7]; [10],0
same,"Plant response rating, Soybean","[7]; 250 g ai/ha, scale 0-100",5
same,Soybean plant response rating,[7]; [11],30
same,"Plant response rating, Ragweed","[8]; 62 g ai/ha, scale 0 to 100",55
same,"Plant response rating, Ragweed",[8]; [10],60
same,"Plant response rating, Ragweed","[8]; 250 g ai/ha, scale 0-100",80
same,Ragweed plant response rating,[8]; [11],80
CCN(CC)C(=O)c1cccc(NC(=O)c2cc(C(C)(C)C)nn2C)n1 [Compound 314],"Plant response rating, Corn","[1]; 62 g ai/ha, scale 0 to 100",0
same,"Plant response rating, Corn",[1]; [10],0
same,"Plant response rating, Corn","[1]; 250 g ai/ha, scale 0-100",0
same,"Plant response rating, Corn",[1]; [16],0
same,"Plant response rating, Kochia","[2]; 62 g ai/ha, scale 0 to 100",0
same,"Plant response rating, Kochia",[2]; [10],0
same,"Plant response rating, Kochia","[2]; 250 g ai/ha, scale 0-100",30
same,"Plant response rating, Kochia",[2]; [16],70
same,"Plant response rating, Surinam Grass","[3]; 62 g ai/ha, scale 0 to 100",0
same,"Plant response rating, Surinam Grass","[3]; 250 g ai/ha, scale 0-100",0
same,"Plant response rating, Surinam Grass",[3]; [16],20
same,"Plant response rating, Morningglory","[4]; 62 g ai/ha, scale 0 to 100",0
same,"Plant response rating, Morningglory",[4]; [10],10
same,"Plant response rating, Morningglory","[4]; 250 g ai/ha, scale 0-100",30
same,"Plant response rating, Morningglory",[4]; [16],40
same,Velvetleaf plant response rating,[5]; [12],20
same,"Plant response rating, Velvetleaf",[5]; [13],30
same,Velvetleaf plant response rating,[5]; [14],80
same,Velvetleaf plant response rating,[5]; [15],40
same,"Plant response rating, Foxtail, Giant","[6]; 62 g ai/ha, scale 0 to 100",0
same,"Plant response rating, Foxtail, Giant",[6]; [10],0
same,"Plant response rating, Foxtail, Giant","[6]; 250 g ai/ha, scale 0-100",20
same,"Plant response rating, Foxtail, Giant",[6]; [16],70
same,"Plant response rating, Soybean","[7]; 62 g ai/ha, scale 0 to 100",0
same,"Plant response rating, Soybean","[7]; 250 g ai/ha, scale 0-100",40
same,"Plant response rating, Soybean",[7]; [16],40
same,"Plant response rating, Ragweed","[8]; 62 g ai/ha, scale 0 to 100",0
same,"Plant response rating, Ragweed","[8]; 250 g ai/ha, scale 0-100",40
same,"Plant response rating, Ragweed",[8]; [16],60
